Measured values: ChEMBL document CHEMBL3880428, “Sulfonamide derivative having PGD2 receptor antagonistic activity” (2012)

Tests used:
Assay type in all cases: cell-based
HEK293 [1] = test: Selectivity ratio of IC50 for PGD2 receptor in human platelets to IC50 for human EP1 receptor expressed in HEK293 cells by cAMP accumulation assay
HEK293 [2] = test: Selectivity ratio of IC50 for PGD2 receptor in human platelets to IC50 for human EP2 receptor expressed in HEK293 cells by cAMP accumulation assay
HEK293 [3] = test: Selectivity ratio of IC50 for PGD2 receptor in human platelets to IC50 for human EP3 receptor expressed in HEK293 cells by cAMP accumulation assay
HEK293 [4] = test: Selectivity ratio of IC50 for PGD2 receptor in human platelets to IC50 for human EP4 receptor expressed in HEK293 cells by cAMP accumulation assay
HEK293 [5] = test: Selectivity ratio of IC50 for PGD2 receptor in human platelets to IC50 for human FP receptor expressed in HEK293 cells by cAMP accumulation assay
HEK293 [6] = test: Selectivity ratio of IC50 for PGD2 receptor in human platelets to IC50 for human TP receptor expressed in HEK293 cells by cAMP accumulation assay
HEK293 [7] = test: Selectivity ratio of IC50 for PGD2 receptor in human platelets to IC50 for human IP receptor expressed in HEK293 cells by cAMP accumulation assay

Measured: Ratio IC50

CC(C)Oc1ccc(S(=O)(=O)N2CCN(c3ccc(Cl)c(OCC(=O)O)c3)CC2)cc1F
> 20: all assays above

CC(C)Oc1ccc(S(=O)(=O)N2CCN(c3cc(OCC(=O)O)cc(-c4ccoc4)c3)CC2)cc1
> 20: all assays above

CC(C)Oc1ccc(S(=O)(=O)N2CCN(c3ccc(Br)c(OCC(=O)O)n3)CC2)cc1
> 20: all assays above

CC[C@@H](C)Oc1ccc(S(=O)(=O)N2CCN(c3ccc(Cl)c(OCC(=O)O)c3)CC2)cc1
> 20: all assays above

CC(C)Oc1ccc(S(=O)(=O)N2CCC(Oc3ccc(Cl)cc3CCC(=O)O)CC2)cc1
> 20: all assays above

CC(C)Oc1ccc(S(=O)(=O)N2CCN(c3ccc(Cl)c(OCC(=O)O)c3)C(C)C2)cc1 (stereo not given)
> 20: all assays above

CC(C)NC(=O)Nc1ccc(N2CCN(S(=O)(=O)c3ccc(OC(C)C)cc3)CC2)cc1OCC(=O)O
> 20: all assays above

CC(C)Oc1ccc(S(=O)(=O)N2CCN(c3ccc(-c4nccs4)c(OCC(=O)O)c3)CC2)cc1
> 20: all assays above

CC(C)Oc1ccc(S(=O)(=O)N2CCN(c3ccc(Cl)c(OCC(=O)O)c3)CC2)cn1
> 20: all assays above

CC(C)Oc1ccc(S(=O)(=O)N2CCN(c3ccc([N+](=O)[O-])c(OCC(=O)O)c3)CC2)cc1
> 20: all assays above

CC(C)Oc1ccc(S(=O)(=O)N2CCN(c3ccc(-c4ccco4)c(OCC(=O)O)c3)CC2)cc1
> 20: all assays above

CC(C)Oc1ccc(S(=O)(=O)N2CCN(c3ccc(C(N)=O)c(OCC(=O)O)c3)CC2)cc1
> 20: all assays above

CC(C)Oc1ccc(S(=O)(=O)N2CCN(c3ccc(C(=O)NCC4CC4)c(OCC(=O)O)c3)CC2)cc1
> 20: all assays above

CC(C)Oc1ccc(S(=O)(=O)N2CCN(c3ccc(NC(=O)c4ccno4)c(OCC(=O)O)c3)CC2)cc1
> 20: all assays above

CC(C)Oc1ccc(S(=O)(=O)N2CCN(c3ccc(C(=O)Nc4cc(C5CC5)n[nH]4)c(OCC(=O)O)c3)CC2)cc1
> 20: all assays above

CC(C)Oc1ccc(S(=O)(=O)N2CCC(c3ccc(Cl)c(OCC(=O)O)c3)CC2)cc1
> 20: all assays above

Cc1cc(C(=O)Nc2ccc(N3CCN(S(=O)(=O)c4ccc(OC(C)C)cc4)CC3)cc2OCC(=O)O)no1
> 20: all assays above

CC(C)Oc1ccc(S(=O)(=O)N2CCN(c3cc(OCC(=O)O)ccc3Cl)CC2)cc1
> 20: all assays above

CC(C)Oc1ccc(S(=O)(=O)N2CCN(c3ccc(-c4nnco4)c(OCC(=O)O)c3)CC2)cc1
> 20: all assays above

Cc1cnc(-c2ccc(N3CCN(S(=O)(=O)c4ccc(OC(C)C)cc4)CC3)cc2OCC(=O)O)o1
> 20: all assays above

CC(C)Oc1ccc(S(=O)(=O)N2CCN(c3cc(Br)cc(OCC(=O)O)c3)CC2)cc1
> 20: all assays above

Cc1ccc(N2CCN(S(=O)(=O)c3ccc(OC(C)C)cc3)CC2)cc1OCC(=O)O
> 20: all assays above

COCC#Cc1cc(OCC(=O)O)cc(N2CCN(S(=O)(=O)c3ccc(OC(C)C)cc3)CC2)c1
> 20: all assays above

CC(C)Oc1ccc(S(=O)(=O)N2CCN(c3cc(OCC(=O)O)cc(C(F)(F)F)c3)CC2)cc1
> 20: all assays above

COc1cccc(OC2CCN(S(=O)(=O)c3ccc(OC(C)C)cc3)CC2)c1/C=C/C(=O)O
> 20: all assays above
